Assays:
[1] = test system: HPAF-II (Pancreatic Carcinoma); assay: Bliss excess, mean over the matrix (fraction); higher = more synergy
Summary of the method: (§1)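 Cell lines grown in DMEM/F12 or RPMI with 10% FBS were plated in 1536-well plates and held 24 hours at 37°C, 5% CO2 before 72 hours of exposure to two-drug dose matrices, with DMSO typically at 0.2%. CellTiter-Glo 2.0 luminescence gave viability, which was converted to inhibition. Vehicle wells were set to 0 and blank wells to 1. Combination Emax is the second-highest inhibition in the matrix, and Bliss excess is the observed combination effect minus the expected EA + EB − EA·EB, where EA and EB are the single-agent effects.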

[2] = test system: SiHa (Cervical Carcinoma); assay: combination Emax (second highest fraction inhibited in the dose matrix, 72 h); higher = more inhibition; extreme values may be limits of the assay
Summary of the method: as §1

[3] = test system: LS-1034 (Colorectal Carcinoma); assay: as above
Summary of the method: as §1

[4] = test system: SKG-IIIa (Cervical Carcinoma); assay: as above
Summary of the method: as §1

[5] = test system: TUR (Acute Myeloid Leukemia); assay: as above
Summary of the method: as §1

[6] = test system: HPAF-II (Pancreatic Carcinoma); assay: as above
Summary of the method: as §1

[7] = test system: MM1S (Plasma Cell Myeloma); assay: as above
Summary of the method: as §1

NCI-H226 (Mesothelioma) = assay: as above
Summary of the method: as §1

[8] = test system: BHT-101 (Thyroid Gland Carcinoma); assay: as above
Summary of the method: as §1

[9] = test system: ZR-75-30 (Breast Carcinoma); assay: as above
Summary of the method: as §1

[10] = test system: SNU-423 (Hepatocellular Carcinoma); assay: as above
Summary of the method: as §1

[11] = test system: NCI-H3118 (Head and Neck Carcinoma); assay: as above
Summary of the method: as §1

[12] = test system: NCI-H1341 (Small Cell Lung Carcinoma); assay: as above
Summary of the method: as §1

[13] = test system: SAT (Head and Neck Carcinoma); assay: as above
Summary of the method: as §1

[14] = test system: NCI-H596 (Other Solid Carcinomas); assay: as above
Summary of the method: as §1

[15] = test system: HT-1080 (Other Solid Carcinomas); assay: as above
Summary of the method: as §1
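Wherever Bliss excess, mean over the matrix is given: after 72 h of two-drug dosing.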

Row | SMILES | Bliss excess [1] | combination Emax [2] | combination Emax [3] | combination Emax [4] | combination Emax [5] | combination Emax [6] | combination Emax [7] | combination Emax (NCI-H226 (Mesothelioma)) | combination Emax [8] | combination Emax [9] | combination Emax [10] | combination Emax [11] | combination Emax [12] | combination Emax [13] | combination Emax [14] | combination Emax [15]
1 | COc1cc2ncnc(Nc3ccc(F)c(Cl)c3)c2cc1OCCCN1CCOCC1 [Gefitinib] + CC(C)n1c(=O)n(C)c2cnc3cc(F)c(-c4ccc(OCCCN5CCCCC5)nc4)cc3c21 [AZD1390] (first compound max 10 µM, 7x7, partner max 0.3 µM) | -0.066 | 0.0755 | 0.117 | 0.148 | 0.293 | 0.29 | 0.217 | 0.0952 | 0.255 | 0.446 | 0.126 | 0.518 | 0.108 | 0.69 | 0.269 | 0.0949
2 | NC1(C(=O)N[C@@H](CCO)c2ccc(Cl)cc2)CCN(c2ncnc3[nH]ccc23)CC1 [Capivasertib] + CC(=O)c1c(C)c2cnc(Nc3ccc(N4CCNCC4)cn3)nc2n(C2CCCC2)c1=O [Palbociclib] (first compound max 10 µM, 7x7, partner max 10 µM) | 0.0187 | 0.252 | 0.499 | 0.27 | 0.876 | 0.197 | 0.981 | 0.3 | 0.675 | 0.396 | 0.458 | 0.519 | 0.506 | 0.662 | 0.596 | 0.101
3 | CN(C)CCCOc1ccc(-c2ccc3ncc4c(c3c2)n(C2CCOCC2)c(=O)n4C)cn1 [AZD0156] + O=C(c1cc(Cc2n[nH]c(=O)c3ccccc23)ccc1F)N1CCN(C(=O)C2CC2)CC1 [Olaparib] (first compound max 3 µM, partner max 3 µM) | -0.0048 | 0.261 | 0.293 | 0.139 | 0.273 | 0.25 | 0.881 | 0.251 | 0.362 | 0.283 | 0.293 | 0.305 | 0.306 | 0.133 | 0.41 | 0.134
4 | C[C@@H](c1ccc2nccn2c1)n1nnc2ncc(-c3cnn(C)c3)nc21 [Savolitinib] + CC1(C)CCC(CN2CCN(c3ccc(C(=O)NS(=O)(=O)c4ccc(NCC5CCOCC5)c([N+](=O)[O-])c4)c(Oc4cnc5[nH]ccc5c4)c3)CC2)=C(c2ccc(Cl)cc2)C1 [Venetoclax] (first compound max 1 µM, 7x7, partner max 1 µM) | -0.018 | 0.137 | 0.0816 | 0.12 | 0.0127 | 0.131 | 0.116 | 0.17 | 0.14 | 0.127 | 0.233 | 0.115 | 0.392 | 0.151 | 0.229 | 0.0906
5 | CC(=O)c1c(C)c2cnc(Nc3ccc(N4CCNCC4)cn3)nc2n(C2CCCC2)c1=O [Palbociclib] + Cc1c2c(nn1C)CSCc1cc(n(C)n1)CSc1cc(c3ccccc3c1)OCCCc1c(C(=O)O)n(C)c3c-2c(Cl)ccc13 [AZD5991] (first compound max 10 µM, 7x7, partner max 1 µM) | -0.0186 | 0.0939 | 0.686 | 0.146 | 0.621 | 0.142 | 0.26 | 0.204 | 0.675 | 0.26 | 0.315 | 0.426 | 0.374 | 0.821 | 0.349 | 0.0542
6 | Cn1cnc2c(F)c(Nc3ccc(Br)cc3Cl)c(C(=O)NOCCO)cc21 [Selumetinib] + CC(C)n1c(=O)n(C)c2cnc3cc(F)c(-c4ccc(OCCCN5CCCCC5)nc4)cc3c21 [AZD1390] (first compound max 10 µM, 7x7, partner max 0.3 µM) | 0.0088 | 0.156 | 0.689 | 0.2 | 0.272 | 0.64 | 0.264 | 0.133 | 0.791 | 0.0506 | 0.275 | 0.577 | 0.163 | 0.47 | 0.21 | 0.261
7 | CS(=O)(=O)CCNCc1ccc(-c2ccc3ncnc(Nc4ccc(OCc5cccc(F)c5)c(Cl)c4)c3c2)o1 [Lapatinib] + C[C@@H](Oc1cc(-c2cnn(C3CCNCC3)c2)cnc1N)c1c(Cl)ccc(F)c1Cl [Crizotinib] (first compound max 10 µM, 7x7, partner max 10 µM) | 0.0211 | 0.252 | 0.946 | 0.733 | 0.59 | 0.614 | 0.962 | 0.44 | 0.98 | 0.83 | 0.952 | 0.928 | 0.898 | 0.981 | 0.902 | 0.823
8 | COc1nnc2ccc(N3CCC(c4ccc(OCCN5CCN(C)C(=O)[C@H]5C)cc4)CC3)nn12 [AZD5153] + C=CCn1c(=O)c2cnc(Nc3ccc(N4CCN(C)CC4)cc3)nc2n1-c1cccc(C(C)(C)O)n1 [AZD1775] (first compound max 1 µM, partner max 1 µM) | -0.0147 | 0.621 | 0.613 | 0.546 | 0.867 | 0.449 | 0.734 | 0.448 | 0.737 | 0.309 | 0.462 | 0.754 | 0.972 | 0.785 | 0.803 | 0.522

— the supplement of paper PMC11061612
